Experimental findings from ChEMBL document CHEMBL3425509, “Design, synthesis, and biological evaluation of benzofuran- and 2,3-dihydrobenzofuran-2-carboxylic acid N-(substituted)phenylamide derivatives as anticancer agents and inhibitors of NF-κB” (Bioorg Med Chem Lett, 2015) are described below.

Assay [1] is described as follows: Cytotoxicity against human PC3 cells assessed as cell viability at 10 uM after 72 hrs by sulforhodamine B assay relative to control. To be noted: PC-3, 72 h, read-out: Activity. Type of assay: functional.
For assay [2], the target named is Nuclear factor NF-kappa-B complex (Homo sapiens) (UniProt Q00653+P19838+Q04206). Description: Inhibition of NF-kappaB (unknown origin) transcriptional activity in LPS-induced mouse RAW264.7 cells at 30 uM after 1 hr by secreted alkaline phosphatase assay relative to control. Type of assay: cell-based.
In assay [3] the test system is NCI-H23. Description: Cytotoxicity against human NCI-H23 cells assessed as cell viability at 10 uM after 72 hrs by sulforhodamine B assay relative to control. Type of assay: functional. To be noted: NCI-H23, 72 h, read-out: Activity.
The nature of assay [4]: Cytotoxicity against human HCT15 cells assessed as cell viability at 10 uM after 72 hrs by sulforhodamine B assay relative to control. It counts as functional. Conditions: HCT-15, 72 h, read-out: Activity.
Assay [5] is described as follows: Cytotoxicity against human NUGC3 cells assessed as cell viability at 10 uM after 72 hrs by sulforhodamine B assay relative to control. Conditions: NUGC-3, 72 h, read-out: Activity. Type of assay: functional.
Assay [6] relates to ACHN. Description: Cytotoxicity against human ACHN cells assessed as cell viability at 10 uM after 72 hrs by sulforhodamine B assay relative to control. It counts as functional. To be noted: read-out: Activity.
The subject of assay [7] is MDA-MB-231. Description: Cytotoxicity against human MDA-MB-231 cells assessed as cell viability at 10 uM after 72 hrs by sulforhodamine B assay relative to control. Conditions: MDA-MB-231, 72 h, read-out: Activity. Type of assay: functional.

Each structure is given as a SMILES string.

Sequence of Nuclear factor NF-kappa-B complex (Homo sapiens) (P19838 whole entry, looked up): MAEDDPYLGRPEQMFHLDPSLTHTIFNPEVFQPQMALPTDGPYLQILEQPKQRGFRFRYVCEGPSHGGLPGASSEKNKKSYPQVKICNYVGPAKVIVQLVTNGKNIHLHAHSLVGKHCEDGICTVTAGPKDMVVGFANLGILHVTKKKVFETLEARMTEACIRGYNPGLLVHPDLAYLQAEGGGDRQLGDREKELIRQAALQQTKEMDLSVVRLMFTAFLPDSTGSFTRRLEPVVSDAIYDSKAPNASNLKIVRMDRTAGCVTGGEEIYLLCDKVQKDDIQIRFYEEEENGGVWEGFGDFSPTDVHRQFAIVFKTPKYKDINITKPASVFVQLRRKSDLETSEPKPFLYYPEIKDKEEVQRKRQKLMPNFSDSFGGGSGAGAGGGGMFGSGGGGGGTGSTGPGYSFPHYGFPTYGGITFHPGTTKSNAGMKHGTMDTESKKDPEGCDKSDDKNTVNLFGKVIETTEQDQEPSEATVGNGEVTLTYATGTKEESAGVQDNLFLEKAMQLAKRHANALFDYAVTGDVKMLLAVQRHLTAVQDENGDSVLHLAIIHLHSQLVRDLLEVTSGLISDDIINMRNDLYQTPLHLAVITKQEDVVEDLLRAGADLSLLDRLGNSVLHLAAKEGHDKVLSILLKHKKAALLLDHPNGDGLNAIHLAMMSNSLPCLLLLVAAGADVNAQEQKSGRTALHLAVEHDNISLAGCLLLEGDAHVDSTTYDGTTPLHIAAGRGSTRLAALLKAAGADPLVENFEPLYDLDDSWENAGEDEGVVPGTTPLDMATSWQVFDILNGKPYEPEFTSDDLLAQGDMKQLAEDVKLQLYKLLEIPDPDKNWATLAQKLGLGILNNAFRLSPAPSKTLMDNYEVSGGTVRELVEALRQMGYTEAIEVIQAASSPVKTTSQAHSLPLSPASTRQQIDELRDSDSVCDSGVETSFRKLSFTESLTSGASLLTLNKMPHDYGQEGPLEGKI
Sequence of Nuclear factor NF-kappa-B complex (Homo sapiens) (Q00653 whole entry, looked up): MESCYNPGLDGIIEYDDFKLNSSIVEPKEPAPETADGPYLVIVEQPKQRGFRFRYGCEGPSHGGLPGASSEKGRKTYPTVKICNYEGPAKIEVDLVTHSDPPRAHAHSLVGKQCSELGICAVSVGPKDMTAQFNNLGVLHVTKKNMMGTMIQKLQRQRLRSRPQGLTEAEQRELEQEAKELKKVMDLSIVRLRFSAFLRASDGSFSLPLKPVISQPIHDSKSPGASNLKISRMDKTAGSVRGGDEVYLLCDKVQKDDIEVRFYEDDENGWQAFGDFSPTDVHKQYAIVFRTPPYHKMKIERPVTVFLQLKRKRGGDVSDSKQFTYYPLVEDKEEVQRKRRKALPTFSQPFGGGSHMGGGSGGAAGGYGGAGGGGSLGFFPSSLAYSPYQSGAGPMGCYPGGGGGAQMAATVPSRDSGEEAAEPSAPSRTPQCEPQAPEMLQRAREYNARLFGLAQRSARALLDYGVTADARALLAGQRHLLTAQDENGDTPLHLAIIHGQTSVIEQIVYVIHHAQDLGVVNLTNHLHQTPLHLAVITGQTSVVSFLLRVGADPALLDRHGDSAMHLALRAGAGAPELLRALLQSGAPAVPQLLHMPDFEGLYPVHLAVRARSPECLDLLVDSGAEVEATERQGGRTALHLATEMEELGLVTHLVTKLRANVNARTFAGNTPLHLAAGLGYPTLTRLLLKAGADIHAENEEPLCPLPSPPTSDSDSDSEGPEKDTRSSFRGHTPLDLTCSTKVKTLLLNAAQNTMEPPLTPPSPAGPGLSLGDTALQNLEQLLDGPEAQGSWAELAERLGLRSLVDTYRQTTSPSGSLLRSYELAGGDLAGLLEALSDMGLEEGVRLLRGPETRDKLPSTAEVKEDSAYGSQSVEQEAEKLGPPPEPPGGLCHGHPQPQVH
Sequence of Nuclear factor NF-kappa-B complex (Homo sapiens) (Q04206 whole entry, looked up): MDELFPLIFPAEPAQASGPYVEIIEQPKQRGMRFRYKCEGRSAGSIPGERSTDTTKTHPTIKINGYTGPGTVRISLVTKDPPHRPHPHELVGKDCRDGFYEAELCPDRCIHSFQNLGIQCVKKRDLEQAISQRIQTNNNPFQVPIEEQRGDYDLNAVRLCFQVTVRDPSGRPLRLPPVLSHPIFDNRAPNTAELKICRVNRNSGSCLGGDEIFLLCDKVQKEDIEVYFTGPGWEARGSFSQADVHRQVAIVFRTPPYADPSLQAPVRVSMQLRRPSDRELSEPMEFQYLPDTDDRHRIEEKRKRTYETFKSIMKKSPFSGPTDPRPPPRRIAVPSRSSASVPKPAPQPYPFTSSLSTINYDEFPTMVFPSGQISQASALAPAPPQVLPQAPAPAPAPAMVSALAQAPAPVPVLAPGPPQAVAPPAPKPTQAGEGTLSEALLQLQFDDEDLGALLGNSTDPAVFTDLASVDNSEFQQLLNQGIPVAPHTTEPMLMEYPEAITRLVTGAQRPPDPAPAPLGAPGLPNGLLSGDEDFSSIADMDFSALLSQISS

Regarding `COc1ccc(NC(=O)C2Cc3ccccc3O2)cc1OC` (configuration not stated), the viability at 10 µM in assay [1] came out at 38%; in assay [3], 101%; in assay [4], 92%; in assay [5], 87%; in assay [6], 127%; in assay [7], 71%. In addition, in assay [2], the inhibition was 21.5%.
Take `Cc1ccc(C)c(NC(=O)C2Cc3ccccc3O2)c1` (configuration not stated): the viability at 10 µM came out at 55% in assay [1]; 103% in assay [3]; 88% in assay [4]; 81% in assay [5]; 129% in assay [6]; 88% in assay [7]. The same compound returned an inhibition in assay [2] of 22%.
As for `COc1ccccc1NC(=O)C1Cc2ccccc2O1` (configuration not stated), the viability at 10 µM in assay [1] came out at 88%; in assay [3], 111%; in assay [4], 100%; in assay [5], 111%; in assay [6], 134%; in assay [7], 89%. The compound further registered an inhibition in assay [2] of 29%.
`O=C(Nc1cccc(O)c1)c1cc2ccccc2o1`: the viability at 10 µM in assay [1] is 90%; in assay [3], 95%; in assay [4], 85%; in assay [5], 87%; in assay [6] it was 84%; in assay [7], 100%. Further, the inhibition in assay [2] is 41%.
Consider `O=C(Nc1ccccc1C(F)(F)F)c1cc2ccccc2o1`, for which the viability at 10 µM in assay [1] stood at 95%; in assay [3] it was 100%; in assay [4], 99%; in assay [5], 93%; in assay [6], 98%; in assay [7], 114%. This compound also came in with an inhibition in assay [2] of 57.5%.
On to `O=C(Nc1ccc(Cl)c(Cl)c1)c1cc2ccccc2o1`, for which the viability at 10 µM was determined as 113% in assay [1]; 100% in assay [3]; 96% in assay [4]; 102% in assay [5]; 95% in assay [6]; 80% in assay [7]. Further, in assay [2], the inhibition was found to be 40%.
Turning to `O=C(Nc1cc(Cl)ccc1Cl)C1Cc2ccccc2O1` (configuration not stated), the viability at 10 µM worked out at 84% in assay [1]; 90% in assay [3]; 77% in assay [4]; 105% in assay [5]; 101% in assay [6]; 74% in assay [7]. The compound further gave an inhibition in assay [2] of 42.5%.
`Cc1cccc(NC(=O)C2Cc3ccccc3O2)c1` (configuration not stated): the viability at 10 µM in assay [1] came to 96%; in assay [3], 98%; in assay [4], 99%; in assay [5] it was 108%; in assay [6], 145%; in assay [7], 95%. The compound also had an inhibition in assay [2] of 25%.
`O=C(Nc1ccccc1O)C1Cc2ccccc2O1` (configuration not stated): the viability at 10 µM is 109% in assay [1]; 102% in assay [3]; 102% in assay [4]; 103% in assay [5]; 134% in assay [6]; 83% in assay [7]. In assay [2], this compound came in with an inhibition of 20.5%.
Consider `COc1ccc(OC)c(NC(=O)c2cc3ccccc3o2)c1`, for which the viability at 10 µM in assay [1] is 106%; in assay [3] it was 103%; in assay [4] it was 97%; in assay [5] it was 91%; in assay [6] it was 102%; in assay [7], 101%. Besides, in assay [2], the inhibition came out at 23%.
As for `O=C(Nc1cc(C(F)(F)F)ccc1C(F)(F)F)c1cc2ccccc2o1`, the viability at 10 µM in assay [1] is 95%; in assay [3], 77%; in assay [4], 88%; in assay [5] it was 89%; in assay [6], 84%; in assay [7], 98%. Further, in assay [2], the inhibition was 28.5%.
Regarding `O=C(Nc1cc(Cl)cc(Cl)c1)c1cc2ccccc2o1`, the viability at 10 µM in assay [1] was 99%; in assay [3], 100%; in assay [4] it was 95%; in assay [5] it was 93%; in assay [6], 99%; in assay [7], 102%. The compound also gave an inhibition in assay [2] of 20%.
As to `COc1cccc(NC(=O)c2cc3ccccc3o2)c1`, the viability at 10 µM was found to be 106% in assay [1]; 105% in assay [3]; 87% in assay [4]; 99% in assay [5]; 105% in assay [6]; 127% in assay [7]. In assay [2], the inhibition was determined as 34.5%.
Regarding `O=C(Nc1ccc(O)cc1)C1Cc2ccccc2O1` (configuration not stated), the viability at 10 µM in assay [1] turned out to be 98%; in assay [3], 106%; in assay [4], 88%; in assay [5], 102%; in assay [6], 122%; in assay [7], 91%. This compound registered an inhibition in assay [2] of 18.5%.
With `O=C(Nc1cccc([N+](=O)[O-])c1)c1cc2ccccc2o1`, the viability at 10 µM came out at 95% in assay [1]; 99% in assay [3]; 88% in assay [4]; 98% in assay [5]; 93% in assay [6]; 111% in assay [7]. Further, in assay [2], the inhibition is 11%.
As to `COc1cccc(NC(=O)C2Cc3ccccc3O2)c1` (configuration not stated), the viability at 10 µM in assay [1] amounted to 89%; in assay [3], 102%; in assay [4], 99%; in assay [5], 106%; in assay [6] it was 135%; in assay [7] it was 80%. In assay [2], this compound yielded an inhibition of 16.5%.
Turning to `O=C(Nc1ccccc1C(F)(F)F)C1Cc2ccccc2O1` (configuration not stated), the viability at 10 µM in assay [1] is 74%; in assay [3], 102%; in assay [4], 98%; in assay [5], 103%; in assay [6], 136%; in assay [7], 98%. This compound came in with an inhibition in assay [2] of 44.5%.
Consider `COc1ccc(NC(=O)c2cc3ccccc3o2)cc1OC`, for which the viability at 10 µM in assay [1] came out at 98%; in assay [3], 102%; in assay [4] it was 92%; in assay [5], 90%; in assay [6], 99%; in assay [7], 81%. Also, in assay [2], the inhibition turned out to be 40%.
Regarding `COc1ccc(NC(=O)C2Cc3ccccc3O2)cc1` (configuration not stated), the viability at 10 µM in assay [1] came out at 81%; in assay [3], 102%; in assay [4], 89%; in assay [5], 108%; in assay [6], 140%; in assay [7] it was 94%. In assay [2], this compound yielded an inhibition of 22.5%.
`Cc1ccc(NC(=O)C2Cc3ccccc3O2)cc1` (configuration not stated): the viability at 10 µM in assay [1] is 80%; in assay [3], 105%; in assay [4], 100%; in assay [5] it was 112%; in assay [6] it was 134%; in assay [7], 96%. Moreover, the inhibition in assay [2] was 34.5%.
For the compound `O=C(Nc1cccc([N+](=O)[O-])c1)C1Cc2ccccc2O1` (configuration not stated), the viability at 10 µM amounted to 77% in assay [1]; 95% in assay [3]; 83% in assay [4]; 83% in assay [5]; 109% in assay [6]; 92% in assay [7]. In assay [2], this compound gave an inhibition of 40%.
As for `O=C(Nc1cccc(C(F)(F)F)c1)c1cc2ccccc2o1`, the viability at 10 µM in assay [1] is 96%; in assay [3] it was 92%; in assay [4], 75%; in assay [5], 79%; in assay [6] it was 83%; in assay [7], 105%. The compound also registered an inhibition in assay [2] of 47.5%.
Regarding `O=C(Nc1ccccc1Cl)C1Cc2ccccc2O1` (configuration not stated), the viability at 10 µM stood at 96% in assay [1]; 104% in assay [3]; 102% in assay [4]; 104% in assay [5]; 87% in assay [6]; 81% in assay [7]. Besides, the inhibition in assay [2] came out at 37.5%.
For `O=C(Nc1ccc(C(F)(F)F)cc1)c1cc2ccccc2o1`, the viability at 10 µM worked out at 74% in assay [1]; 89% in assay [3]; 80% in assay [4]; 75% in assay [5]; 79% in assay [6]; 89% in assay [7]. The compound further gave an inhibition in assay [2] of 34.5%.
Turning to `COc1ccc(OC)c(NC(=O)C2Cc3ccccc3O2)c1` (configuration not stated), the viability at 10 µM worked out at 81% in assay [1]; 99% in assay [3]; 97% in assay [4]; 95% in assay [5]; 126% in assay [6]; 89% in assay [7]. The same compound came in with an inhibition in assay [2] of 39.5%.
With `O=C(Nc1ccc([N+](=O)[O-])cc1)c1cc2ccccc2o1`, the viability at 10 µM was 87% in assay [1]; 101% in assay [3]; 84% in assay [4]; 95% in assay [5]; 94% in assay [6]; 111% in assay [7]. Moreover, in assay [2], the inhibition worked out at 34.5%.
